Results as given in article PMC6100082, “Pyridine-Ureas as Potential Anticancer Agents: Synthesis and In Vitro Biological Evaluation” (Molecules : A Journal of Synthetic Chemistry and Natural …, 2018).
Where two headings read alike, the source gives them in different places.

Key:
[1] = system: breast cancer MCF-7 cell line; assay: In vitro anti-proliferative activity, MTT assay; format: cell-based, human; conditions: MCF-7, MTT
Method: The in vitro anti-proliferative activity of the newly prepared pyridine-ureas 8a–n was examined against breast cancer MCF-7 cell line. The assay was carried out, as triplicates, utilizing the 3-(4,5-dimethylthiazol-2-yl)-2,5-diphenyltetrazolium bromide (MTT) colorimetric assay as described by T. Mosmann. Doxorubicin and Sorafenib were included in this assay as a reference drug.
MCF-7 (human breast cancer cell line) and WI-38 (human lung fibroblast cell line), were obtained from American Type Culture Collection (Manassas, VA, USA). The cells were propagated in DMEM and supplemented with 10% heat-inactivated FBS (Hyclone), 10 μg/mL of insulin (Manufacturer, Sigma, St. Louis, MO, USA), and 1% penicillin-streptomycin. MTT assay was utilized to examine the in vitro anti-proliferative activity of the newly prepared ureas following the reported procedures. […] The data presented are the mean of at least three separate experiments.

[2] = Homo sapiens, MCF7, 48 h, 48 h of incubation, read-out: IC50 48 h
[3] = Homo sapiens, MCF7, 72 h, 72 h of incubation, read-out: IC50 72 h
[4] = 48 h of incubation, read-out: IC50 48 h

| SMILES | melting point | IC50 [1, 2] | IC50 [1, 3] | IC50 [1, 4] |
| --- | --- | --- | --- | --- |
| COc1ccc(-c2ccc(NC(=O)Nc3cccc(Cl)c3)c(C)n2)cc1 [Compound 8c, 1-(3-Chlorophenyl)-3-(6-(4-methoxyphenyl)-2-methylpyridin-3-yl) Urea] | 212 to 214 °C | 6.4 ± 0.41 µM | 3.52 ± 0.11 µM | – |
| COc1ccc(-c2ccc(NC(=O)Nc3cccc(OC)c3)c(C)n2)cc1 [Compound 8f, 1-(3-Methoxyphenyl)-3-(6-(4-methoxyphenyl)-2-methylpyridin-3-yl) Urea] | 227 to 230 °C | > 50 µM | > 50 µM | > 50 µM |
| COc1ccc(-c2ccc(NC(=O)Nc3ccccc3)c(C)n2)cc1OC [Compound 8h, 1-(6-(3,4-Dimethoxyphenyl)-2-methylpyridin-3-yl)-3-phenylurea] | 238 to 239 °C | > 50 µM | > 50 µM | > 50 µM |

The next compounds have a lower IC50 [1, 2] than those just listed; values first:

| melting point | IC50 [1, 2] | IC50 [1, 3] | IC50 [1, 4] | SMILES |
| --- | --- | --- | --- | --- |
| 205 to 207 °C | 3.03 ± 0.22 µM | 2.83 ± 0.25 µM | – | COc1ccc(-c2ccc(NC(=O)Nc3ccccc3)c(C)n2)cc1 [Compound 8a, 1-(6-(4-Methoxyphenyl)-2-methylpyridin-3-yl)-3-phenylurea] |
| 241 to 242 °C | 4.12 ± 0.27 µM | 27.2 ± 1.98 µM | – | COc1ccc(NC(=O)Nc2ccc(-c3ccc(OC)cc3)nc2C)cc1 [Compound 8g, 1-(4-Methoxyphenyl)-3-(6-(4-methoxyphenyl)-2-methylpyridin-3-yl) Urea] |
| 266 to 267 °C | 5.63 ± 0.36 µM | 3.45 ± 0.3 µM | – | COc1ccc(-c2ccc(NC(=O)Nc3ccc(Cl)cc3)c(C)n2)cc1OC [Compound 8k, 1-(4-Chlorophenyl)-3-(6-(3,4-dimethoxyphenyl)-2-methylpyridin-3-yl) Urea] |
| – | 1.93 ± 0.15 µM | 1.07 ± 0.07 µM | – | COc1cccc2c1C(=O)c1c(O)c3c(c(O)c1C2=O)C[C@@](O)(C(=O)CO)C[C@@H]3O[C@H]1C[C@H](N)[C@H](O)[C@H](C)O1 [Dox., Doxorubicin, reference compound] |
| – | 4.5 ± 0.3 µM | 1.71 ± 0.15 µM | – | CNC(=O)c1cc(Oc2ccc(NC(=O)Nc3ccc(Cl)c(C(F)(F)F)c3)cc2)ccn1 [Sorafenib, reference compound] |
